Data from paper PMC4106271 (Journal of Medicinal Chemistry, 2014).

Key:
[1] = target: T1, α1β3γ2S GABAA receptors (Homo sapiens, UniProt P14867+P28472); assay: Two-microelectrode voltage clamp, IGABA modulation, α1β3γ2S; format: cell-based; settings: for nH: Hill coefficient
T1 construct: expressed in transfected cells; host or cells: Xenopus laevis oocytes injected with cRNA (pCMV cDNA templates)
Experimental: Preparation of stage V–VI oocytes from X. laevis and synthesis of capped runoff poly(A) cRNA transcripts from linearized cDNA templates (pCMV vector) was performed as previously described.[49] Female X. laevis frogs (Nasco) were anesthetized by 15 min incubation in a 0.2% MS-222 (methanesulfonate salt of 3-aminobenzoic acid ethyl ester; Sigma–Aldrich, Vienna, Austria) solution before removal of parts of the ovaries. Follicle membranes from isolated oocytes were enzymatically digested with 2 mg/mL collagenase (type 1A, Sigma–Aldrich, Vienna, Austria).
(§1) Selected oocytes were injected with 10–50 nL of DEPC-treated water (diethyl pyrocarbonate, Sigma, Vienna, Austria) containing the different GABAA cRNAs at a concentration of approximately 300–3000 pg·nL^–1·subunit^–1.
To ensure expression of the γ2S subunit in the case of α1/2/3/5β2/3γ2S receptors, cRNAs were mixed in a ratio of 1:1:10. For expression of receptors composed of α4β2γ2S and α1β1γ2S, cRNAS were mixed in a ratio of 3:1:10. The amount of cRNAs was determined by means of a NanoDrop ND-1000 (Kisker-Biotech, Steinfurt, Germany).
(§2) Oocytes were stored at +18 °C in modified ND96 solution (90 mM NaCl, 1 mM CaCl2, 1 mM KCl, 1 mM MgCl2·6H2O, and 5 mM HEPES [4-(2-hydroxyethyl)-1-piperazineethanesulfonic acid], pH 7.4, all from Sigma–Aldrich, Vienna, Austria).
(§3) Chloride currents through GABAA receptors (IGABA) were measured at room temperature (+21 ± 1 °C) by means of a two-microelectrode voltage clamp technique making use of a Turbo TEC-05X amplifier (npi electronic, Tamm, Germany). IGABA were elicited at a holding potential of –70 mV. Data acquisition was carried out by means of an Axon Digidata 1322A interface using pCLAMP v.10 (Molecular Devices, Sunnyvale, CA). The modified ND96 solution was used as bath solution. Microelectrodes were filled with 2 M KCl and had resistances between 1 and 3 MΩ.
GABA and the studied derivatives were applied by means of the ScreeningTool (npi electronic, Tamm, Germany) fast perfusion system as described previously.[50] To elicit IGABA, the chamber was perfused with 120 μL of GABA- or compound-containing solution at a volume rate of 300 μL/s.[34] Care was taken to account for possible slow recovery from increasing levels of desensitization in the presence of high drug concentrations. The duration of washout periods was therefore extended from 1.5 min (<10 μM compounds) to 30 min (≥10 μM compounds). […]
(§4) Stimulation of chloride currents by modulators of the GABAA receptor was measured at a GABA concentration eliciting between 3% and 7% of the maximal current amplitude (EC3–7). The GABA EC3–7 was determined for each oocyte individually. […] Statistical significance was calculated by paired Student t-test with a confidence interval of <0.05.

[2] = target: T2, α4β2γ2S GABAA receptors (Homo sapiens, UniProt P47870+P48169); assay: Two-microelectrode voltage clamp, IGABA modulation, α4β2γ2S; format: cell-based; settings: for nH: Hill coefficient
T2 construct: expressed in transfected cells; host or cells: Xenopus laevis oocytes injected with cRNA (pCMV cDNA templates)
Experimental: Preparation of stage V–VI oocytes from X. laevis and synthesis of capped runoff poly(A) cRNA transcripts from linearized cDNA templates (pCMV vector) was performed as previously described.[49] […] Follicle membranes from isolated oocytes were enzymatically digested with 2 mg/mL collagenase (type 1A, Sigma–Aldrich, Vienna, Austria).
as §1
To ensure expression of the γ2S subunit in the case of α1/2/3/5β2/3γ2S receptors, cRNAs were mixed in a ratio of 1:1:10. […] The amount of cRNAs was determined by means of a NanoDrop ND-1000 (Kisker-Biotech, Steinfurt, Germany).
as §2
as §3, with “solution.” for “solution. Microelectrodes were filled with 2 M KCl and had resistances between 1 and 3 MΩ.”
GABA and the studied derivatives were applied by means of the ScreeningTool (npi electronic, Tamm, Germany) fast perfusion system as described previously.[50] To elicit IGABA, the chamber was perfused with 120 μL of GABA- or compound-containing solution at a volume rate of 300 μL/s.[34] Care was taken to account for possible slow recovery from increasing levels of desensitization in the presence of high drug concentrations. The duration of washout periods was therefore extended from 1.5 min (<10 μM compounds) to 30 min (≥10 μM compounds). Oocytes with maximal current amplitudes >3 μA were discarded to exclude voltage clamp errors.
as §4, with “individually. Enhancement of the chloride current was defined as (IGABA+compd/IGABA) – 1, where IGABA+compd is the current response in the presence of a given compound and IGABA is the control GABA current. IGABA-max reflects the maximal IGABA enhancement.” for “individually.”

T1 sequence (P14867 28-456): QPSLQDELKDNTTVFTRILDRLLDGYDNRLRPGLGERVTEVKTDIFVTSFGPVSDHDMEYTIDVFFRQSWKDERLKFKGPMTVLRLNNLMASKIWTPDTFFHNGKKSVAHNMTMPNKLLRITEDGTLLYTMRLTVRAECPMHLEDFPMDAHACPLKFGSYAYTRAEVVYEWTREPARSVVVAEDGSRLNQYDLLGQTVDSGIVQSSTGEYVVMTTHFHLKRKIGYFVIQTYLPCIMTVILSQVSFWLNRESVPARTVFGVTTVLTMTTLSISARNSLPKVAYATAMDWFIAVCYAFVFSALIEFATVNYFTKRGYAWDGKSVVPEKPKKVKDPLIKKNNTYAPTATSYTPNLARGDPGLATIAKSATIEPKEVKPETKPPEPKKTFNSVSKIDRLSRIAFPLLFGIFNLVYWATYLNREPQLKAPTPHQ
T1 sequence (P28472 26-473): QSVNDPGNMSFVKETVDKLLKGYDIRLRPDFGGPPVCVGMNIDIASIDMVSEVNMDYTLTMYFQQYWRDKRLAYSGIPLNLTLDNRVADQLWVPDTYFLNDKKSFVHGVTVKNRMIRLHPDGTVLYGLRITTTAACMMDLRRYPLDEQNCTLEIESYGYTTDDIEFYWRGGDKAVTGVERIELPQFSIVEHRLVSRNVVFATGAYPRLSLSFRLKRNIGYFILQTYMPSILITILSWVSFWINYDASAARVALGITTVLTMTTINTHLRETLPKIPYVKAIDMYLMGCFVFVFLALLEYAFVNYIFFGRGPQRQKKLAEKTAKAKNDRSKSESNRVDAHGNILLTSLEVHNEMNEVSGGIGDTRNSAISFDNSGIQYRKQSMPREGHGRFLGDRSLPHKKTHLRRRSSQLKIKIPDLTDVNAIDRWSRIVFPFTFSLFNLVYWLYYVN
T1 sequence (P18507 40-467 isoform P18507-1 partner limits assumed): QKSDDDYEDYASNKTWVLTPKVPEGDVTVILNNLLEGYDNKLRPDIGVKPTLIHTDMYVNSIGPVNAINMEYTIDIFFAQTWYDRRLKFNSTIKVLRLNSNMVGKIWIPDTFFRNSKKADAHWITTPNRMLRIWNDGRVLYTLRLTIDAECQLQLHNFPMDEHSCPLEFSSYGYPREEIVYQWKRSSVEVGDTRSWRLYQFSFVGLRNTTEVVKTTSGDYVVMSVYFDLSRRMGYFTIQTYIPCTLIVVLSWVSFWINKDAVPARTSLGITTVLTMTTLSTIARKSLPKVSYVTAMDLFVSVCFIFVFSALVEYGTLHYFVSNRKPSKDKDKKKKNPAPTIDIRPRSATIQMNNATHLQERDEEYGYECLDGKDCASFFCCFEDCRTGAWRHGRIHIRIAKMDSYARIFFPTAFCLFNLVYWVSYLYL
T2 sequence (P48169 36-554): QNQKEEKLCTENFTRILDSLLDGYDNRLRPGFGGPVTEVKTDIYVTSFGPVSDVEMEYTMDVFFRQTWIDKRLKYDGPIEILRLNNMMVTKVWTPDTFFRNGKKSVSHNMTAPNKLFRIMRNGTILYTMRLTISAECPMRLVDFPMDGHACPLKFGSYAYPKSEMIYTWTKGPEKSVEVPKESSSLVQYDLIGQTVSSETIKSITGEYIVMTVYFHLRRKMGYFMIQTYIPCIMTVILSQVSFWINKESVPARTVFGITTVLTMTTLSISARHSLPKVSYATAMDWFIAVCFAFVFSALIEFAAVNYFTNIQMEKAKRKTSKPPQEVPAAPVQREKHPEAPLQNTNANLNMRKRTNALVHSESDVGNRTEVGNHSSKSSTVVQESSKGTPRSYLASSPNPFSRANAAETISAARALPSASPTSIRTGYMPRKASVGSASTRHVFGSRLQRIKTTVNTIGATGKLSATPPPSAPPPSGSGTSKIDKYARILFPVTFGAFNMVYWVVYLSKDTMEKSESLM
T2 sequence (P47870 26-512): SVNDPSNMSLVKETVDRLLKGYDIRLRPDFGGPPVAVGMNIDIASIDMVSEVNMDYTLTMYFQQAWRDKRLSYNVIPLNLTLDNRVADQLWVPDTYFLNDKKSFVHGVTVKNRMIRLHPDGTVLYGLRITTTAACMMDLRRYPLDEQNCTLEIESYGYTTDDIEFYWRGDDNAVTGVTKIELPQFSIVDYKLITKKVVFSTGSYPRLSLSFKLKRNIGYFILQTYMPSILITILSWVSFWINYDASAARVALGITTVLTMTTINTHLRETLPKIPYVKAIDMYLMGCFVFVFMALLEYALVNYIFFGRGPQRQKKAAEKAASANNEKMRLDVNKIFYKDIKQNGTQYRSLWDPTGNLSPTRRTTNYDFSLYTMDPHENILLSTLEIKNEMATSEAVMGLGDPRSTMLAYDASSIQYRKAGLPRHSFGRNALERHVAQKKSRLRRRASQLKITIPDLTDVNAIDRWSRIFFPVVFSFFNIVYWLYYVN
T2 sequence (P18507 40-467 isoform P18507-1 partner limits assumed): as the sequence (P18507 40-467 isoform P18507-1 partner limits assumed) above

Compound	EC50 [1] [µM]	nH [1]	EC50 [2] [µM]	nH [2]
CCCN(CCC)C(=O)/C=C/C=C/c1ccc2c(c1)OCO2 [Compound 23, (2E,4E)-5-(1,3-benzodioxol-5-yl)-N,N-dipropyl-2,4-pentadienamide]	34.7 ± 5.7	1.9 ± 0.2	34.7 ± 3.8	1.7 ± 0.1
CCCCN(CCCC)C(=O)/C=C/C=C/c1ccc2c(c1)OCO2 [Compound 25, (2E,4E)-5-(1,3-Benzodioxol-5-yl)-N,N-dibutyl-2,4-pentadienamide]	29.5 ± 2.9	1.5 ± 0.1	56.7 ± 21	1.3 ± 0.3
